In US6358928B1, “Peptidyl sulfonyl imidazolides as selective inhibitors of serine proteases” (Enzyme Systems Products, priority 1999, dated 2002):

Tests used:
human leukocyte elastase = target: T1, human leukocyte elastase (Homo sapiens, UniProt P08246); assay: Inhibition of human leukocyte elastase (kobs/[I], spectrophotometric, MeOSuc-Ala-Ala-Pro-Val-AMC substrate); assay type: biochemical
T1 sequence (P08246 30-267): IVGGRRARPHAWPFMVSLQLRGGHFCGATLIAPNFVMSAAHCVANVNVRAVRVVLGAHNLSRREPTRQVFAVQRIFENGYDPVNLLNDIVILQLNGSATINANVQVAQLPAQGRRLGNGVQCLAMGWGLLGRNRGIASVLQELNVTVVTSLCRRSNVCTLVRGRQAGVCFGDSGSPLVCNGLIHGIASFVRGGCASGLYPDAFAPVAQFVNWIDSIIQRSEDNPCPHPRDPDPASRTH
Experimental: (§1) Z-Ala-Ala-AlaCH2SO2-Im, prepared as in Example 1, was assayed for serine protease inhibition activity against human leukocyte elastase. Various concentrations of inhibitor were rapidly mixed with fixed aliquots of enzyme and allowed to react for at least two half-lives. Aliquots of the treated enzyme were then assayed spectrophotometrically for protease activity using MeOSuc-Ala-Ala-Pro-Val-AMC as the substrate to determine kobs/[I]. […] 359-361 (1975), incorporated herein by reference.

human cathepsin G = target: T2, human cathepsin G (Homo sapiens, UniProt P08311); assay: Inhibition of human cathepsin G, assayed as in Example 2; assay type: biochemical; conditions: present-tense example
T2 sequence (P08311 21-244): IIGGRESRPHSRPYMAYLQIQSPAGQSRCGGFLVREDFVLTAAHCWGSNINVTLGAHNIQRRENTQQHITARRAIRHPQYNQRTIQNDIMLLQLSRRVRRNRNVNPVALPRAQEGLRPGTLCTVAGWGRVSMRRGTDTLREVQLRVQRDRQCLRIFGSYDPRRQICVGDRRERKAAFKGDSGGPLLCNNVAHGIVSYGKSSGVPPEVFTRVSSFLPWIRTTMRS
Experimental: as §1
MeOSuc-Ala-Ala-Pro-ValCH2SO2-Im is prepared as in example 3 and assayed as in Example 2 for inhibition of human leukocyte elastase and human cathepsin G with the corresponding peptidyl chloromethane, MeOSuc-Gly-Leu-PheCH2SO2-Im, and Z-Ala-Ala-AlaCH2SO2-Im as comparator inhibitors.
Z-Gly-Leu-PheCH2SO2-Im is prepared as in Example 5, and is assayed as in Example 2 for inhibition of human cathepsin G and human leukocyte elastase with the corresponding peptidyl chloromethane, MeOSuc-Ala-Ala-Pro-ValCH2SO2-Im, and Z-Ala-Ala-AlaCH2SO2-Im as comparator inhibitors.

[1] = enzyme concentration 200 μM, substrate 100 μM, inhibitor 200 μM

C[C@H](NC(=O)OCc1ccccc1)C(=O)N[C@@H](C)C(=O)N[C@@H](C)CS(=O)(=O)n1ccnc1 [Z-Ala-Ala-AlaCH2SO2-Im]
times more potent than the corresponding peptidyl chloromethane inhibitor (human leukocyte elastase; comparator value as reported in Tuhy and Powers, FEBS Letters 50, 359-361 (1975)): 45 times
kobs (human leukocyte elastase; [1]): 0.0025 s⁻¹
kobs/[I] (human leukocyte elastase; [1]): 12.7 M⁻¹ s⁻¹

CC(C)C[C@H](NC(=O)CNC(=O)OCc1ccccc1)C(=O)N[C@@H](Cc1ccccc1)CS(=O)(=O)n1ccnc1 [Z-Gly-Leu-PheCH2SO2-Im]
kobs/[I] against human leukocyte elastase compared with MeOSuc-Ala-Ala-Pro-ValCH2SO2-Im (human leukocyte elastase; present-tense example): significantly lower
kobs/[I] against human cathepsin G compared with comparator inhibitors (human cathepsin G; comparators: corresponding peptidyl chloromethane, MeOSuc-Ala-Ala-Pro-ValCH2SO2-Im, Z-Ala-Ala-AlaCH2SO2-Im): significantly higher

MeOSuc-Ala-Ala-Pro-ValCH2SO2-Im
kobs/[I] against human leukocyte elastase compared with comparator inhibitors (human leukocyte elastase; comparators: corresponding peptidyl chloromethane, MeOSuc-Gly-Leu-PheCH2SO2-Im, Z-Ala-Ala-AlaCH2SO2-Im, present-tense example): significantly higher
kobs/[I] against human cathepsin G compared with MeOSuc-Gly-Leu-PheCH2SO2-Im (human cathepsin G): significantly lower
